Test results from PMC9785144, “Metal Coordination and Biological Screening of a Schiff Base Derived from 8-Hydroxyquinoline and Benzothiazole” (Pharmaceutics, 2022).
One block for each compound: values may come before it.

Assays:
cancer cells = conditions: in vitro; cited from earlier work
HCT-116 cell line = test system: HCT-116 cell line; design: method as in PMID 26961176; conditions: cited from earlier work
CT-26 colon cancer cells = assay: MTT antiproliferative assay, CT-26; type: cell-based, murine; conditions: Mus musculus, CT26; CT-26, MTT, 48 h incubation
Description: (§1) Murine colon cancer CT-26 (ATCC® CRL-263™) cells were cultured in RPMI-1640, supplemented with 10% foetal bovine serum (FBS) and 100 IU/mL of penicillin and 100 μg/mL streptomycin (Gibco, Thermo Fisher Scientific, Waltham, MA, USA), hereafter designated as complete culture medium. Human colon cancer HCT-116 (ATCC® CCL-247™), human melanoma A375 (ATCC® CCL-1619™), murine melanoma B16F10 (ATCC® CCL-6475™) cells and human epidermal keratinocytes (HaCaT) were maintained in Dulbecco’s modified Eagle’s medium (DMEM) with high-glucose (4500 mg/L) (Sigma-Aldrich, St. Louis, MO, USA), supplemented with 10% FBS and 100 IU/mL of penicillin and 100 μg/mL streptomycin (Gibco, Thermo Fisher Scientific, Waltham, MA, USA), also designated as complete culture medium. The cell lines were maintained at 37 °C in a 5% CO2 environment and cells were trypsinised every 2–3 days when 80% confluence was reached.
(§2) Negative controls were cells maintained in complete culture medium.

HCT-116 cells [1] = assay: Wound-healing migration assay, HCT-116; type: cell-based, human; conditions: HCT-116, 40 μM, at 22 h (control 50%)
Description: To assess cellular migration in the presence or absence of tested compounds, HCT-116 and CT-26 cells were plated at 1.5 × 10^5 and 3 × 10^5 cells/mL in a 12-well plate (1 mL/well) and were allowed to adhere and grow until reaching around 80–90% confluence. A sterile 10 μL pipette tip was used to wound the cell monolayer, followed by a washing step with PBS to remove debris. Then, cells were incubated with the tested compounds suspended in RPMI-1640 (CT-26) or DMEM media (HCT-116) supplemented with 2% FBS and 100 IU/mL of penicillin and 100 μg/mL streptomycin (Gibco, Thermo Fisher Scientific, Waltham, MA, USA), and hereafter designated as RPMI 2% and DMEM 2%, respectively. Under the above mentioned culture conditions, CT-26 cells were incubated with [Ni(HL)(acetate)] or [Ru(HL)Cl(DMSO)] at concentrations of 10 and 15 μM, respectively. […] The positive control, 5-FU, was tested at 1.5 and 40 μM for CT-26 and HCT-116, respectively. Negative control group was constituted by cells maintained in RPMI 2% (CT-26) and DMEM 2% (HCT-116). Images of the wound closure were taken beneath the stage of a Zeiss Axiovert 200 inverted microscope, using a 10× objective and a digital camera (CoolSNAP EZ, Photometrics, Huntington Beach, CA, USA) and recorded by the Metafluor Software at 0, 2, 4, 8, 18, 20 and 22 h following cell monolayer scratching (Molecular Devices, Sunnyvale, CA, USA). […]

[2] = test system: HCT-116 colon cancer cells; assay: MTT antiproliferative assay, HCT-116; type: cell-based, human; conditions: Homo sapiens; HCT-116, MTT, 48 h incubation
Description: as §1, §2

CT-26 cells = assay: Guava ViaCount cell viability assay; type: cell-based, murine; conditions: CT-26, 48 h incubation
Description: CT-26 cells were incubated with [Ni(HL)(acetate)] or [Ru(HL)Cl(DMSO)] at concentrations of 5 and 10 μM or 10 and 20 μM, respectively. For the HCT-116 cell line, the tested concentrations were 5 and 7.5 μM, and 7.5 and 12.5 μM, respectively. The positive control group, 5-FU, was tested at 0.5 and 2 μM, and at 20 and 40 μM for CT-26 and HCT-116, respectively. Negative control group was constituted by cells in the presence of complete culture medium. After a 48 h incubation period, cell culture supernatants were collected, and adherent cells were detached using TrypLE™ Express (Invitrogen). Detached cells were then added to supernatants and the wells were washed using PBS with 2% FBS to recover any remaining cells. The recovered suspension was added to the previously collected cells and supernatants and centrifuged for 5 min at 650× g. The supernatants were discarded, and cells were suspended in PBS with 2% FBS. Then, on a 96-well plate, 20 μL of cell suspension was incubated with 180 μL of Guava ViaCount® reagent (Merck Millipore, Darmstadt, Germany) for 5 min at r. t. Using a Guava EasyCyte 5HT Flow cytometer (Guava Technologies, Inc., Hayward, CA, USA), data were collected and analysed with the ViaCount software module with the acquisition of 10,000 events per sample. GraphPad Prism®8 was used to analyse cell proliferation (GraphPad Software, San Diego, CA, USA). […]

HCT-116 cells [3] = test system: HCT-116 cells; design: method as in PMID 34389368, PMID 34562873; conditions: HCT-116, concentrations around 20 μM; cited from earlier work
[4] = Stability in PBS pH 7.4 without and with BSA (UV-vis); type: physicochemical; conditions: PBS pH 7.4, 25 °C, <1% DMSO, without BSA
Description: The complexes were monitored for their stability in PBS, pH 7.4 at 25 °C in the absence and presence of equimolar amounts of bovine serum albumin (BSA). Stock solutions of each complex were prepared in DMSO and then diluted in PBS in order to obtain final concentrations of 20 to 30 µM and ensuring that the organic solvent was less than 1% (v/v). For the assays with BSA, stock solutions of the protein were prepared in PBS using 20 mg of lyophilised powder in 5 mL solvent, which were allowed to hydrate for 24 h in the refrigerator. Samples were monitored by UV-vis absorption spectroscopy for 6 h and a final measurement was also taken after 24 h.

[5] = target: bovine serum albumin (BSA) (Bos taurus, UniProt P02769); assay: Albumin binding by fluorescence quenching and circular dichroism; conditions: BSA ca. 20–25 μM, bands centred at ca. 360 nm, compound 5 to 70 μM
Chain of bovine serum albumin (BSA) (P02769 25-607): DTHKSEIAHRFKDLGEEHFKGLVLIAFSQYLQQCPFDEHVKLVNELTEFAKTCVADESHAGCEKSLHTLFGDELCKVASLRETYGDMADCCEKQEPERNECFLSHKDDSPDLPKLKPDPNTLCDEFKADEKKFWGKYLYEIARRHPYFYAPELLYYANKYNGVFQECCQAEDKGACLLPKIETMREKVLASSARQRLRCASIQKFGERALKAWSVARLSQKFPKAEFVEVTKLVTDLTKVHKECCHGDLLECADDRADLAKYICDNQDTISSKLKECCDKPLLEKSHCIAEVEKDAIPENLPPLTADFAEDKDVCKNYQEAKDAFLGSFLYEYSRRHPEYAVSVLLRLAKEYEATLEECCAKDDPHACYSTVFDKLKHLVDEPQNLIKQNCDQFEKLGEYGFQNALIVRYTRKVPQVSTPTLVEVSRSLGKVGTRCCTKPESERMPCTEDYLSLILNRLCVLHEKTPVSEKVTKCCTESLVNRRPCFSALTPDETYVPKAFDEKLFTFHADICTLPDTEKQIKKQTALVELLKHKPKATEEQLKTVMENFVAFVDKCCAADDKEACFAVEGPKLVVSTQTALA
Description: The concentration of BSA in the experiments was ca. 1.5 μM (in aqueous PBS). The fluorescence emission spectra were recorded between 310 and 575 nm, with λex = 295 nm. Successive additions of the complexes were done directly to the cuvette (optical path 1 cm) and the fluorescence emission spectra were recorded for each one under the same conditions. Blank assays for each sample, consisting in solutions with the same concentration of complex and no BSA, were recorded and subtracted to the corresponding emission spectra containing the fluorophore. The UV-vis spectra of the sample solutions were used to correct the emission spectra, minimizing inner filter and reabsorption phenomena interference.
The concentration of BSA in the experiments was ca. 20–25 μM (in aqueous PBS). The circular dichroism (CD) spectra are an average of three scan accumulations, recorded between 300 and 500 nm, with bandwidth of 1 nm and response of 2 s, using a scanning speed of 100 nm/min. Successive additions of the complexes stock solutions in DMSO were done directly to the cuvette (1 cm) and the CD spectra were recorded under the same conditions after 10 min equilibration. Induced CD spectra were obtained as the CD spectrum of compound-BSA mixture minus the CD spectrum of BSA alone and are expressed as ellipticity in millidegrees.

Compound: CS(C)=O.[Cl-].[Cl-].[Cl-].[Cl-].[Ru+3].c1c[nH+]c[nH]1.c1c[nH]cn1 [NAMI-A]
cytotoxicity against cancer cells (cancer cells): minimal cytotoxicity
fold lower activity than cisplatin (cancer cells): 1000 fold
effect on cell adhesion and migration (HCT-116 cell line): inhibitory effect in reducing cell adhesion and migration

IC50 (CT-26 colon cancer cells): 2.7 ± 1.9 µM
IC50 [2]: 43.8 ± 2.3 µM
Compound: O=c1[nH]cc(F)c(=O)[nH]1 [5-FU, 5-fluorouracil, reference compound]
maximum wound closure (HCT-116 cells [1]): 39%
cell viability by Guava ViaCount (CT-26 cells): higher percentage of dead and apoptotic cells
cell cycle arrest (HCT-116 cells [3]): arrested cell cycle at S phase

induced CD bands with BSA [5]: high intensity induced CD bands
Compound: [O]=[V]([O]c1cccc2ccc(/C=N/Nc3nc4ccccc4s3)nc12)[O]c1cccc2ccc(/C=N/Nc3nc4ccccc4s3)nc12 [[VO(HL)2]]
solubility and stability in PBS buffered solutions [4]: oxidation of the metal centre likely takes place
